Data taken from patent US20240408086A1, “USE OF LUVADAXISTAT FOR THE TREATMENT OF COGNITIVE IMPAIRMENT” (TAKEDA PHARMACEUTICAL COMPANY LIMITED, priority 2021, published 2024).
Read-outs that look alike come from different tables or passages of the source.

Test system: adult patients with persistent negative symptoms of schizophrenia
Assay type: in vivo, human
Excerpt: To assess changes in cognitive impairment associated with schizophrenia (CIAS), secondary endpoints included the 12-week change from baseline in the Brief Assessment of Cognition in Schizophrenia (BACS) composite score, a measure of cognition across multiple domains, and the Schizophrenia Cognition Rating Scale (SCORS) score, a measure of day-to-day cognitive functioning requiring input from an adult informant. Secondary endpoints were not corrected for multiplicity.
The BACS is specifically designed to measure treatment-related improvements in cognition and includes alternate forms. BACS is a reliable and sensitive measure of cognitive function in schizophrenia. The BACS is a cognition assessment battery that assesses 6 domains of cognitive function found to be consistently impaired in schizophrenia: verbal memory; working memory; motor speed; attention; executive functions; and verbal fluency. The primary measure from each test of the BACS is standardized by creating T-scores whereby the mean of the test session of a matched reference healthy participant is set to 50 and the standard deviation set to 10.

[1] = 125 mg once daily, preliminary analysis
[2] = 500 mg once daily, MMRM, preliminary analysis
[3] = 500 mg once daily, preliminary analysis

## O=c1[nH]nc(CCc2ccc(C(F)(F)F)cc2)cc1O [Compound (I), luvadaxistat]
[1]
  BACS Working Memory Cognition Domain, Change from Baseline to Week 6, Median: 2.0
  BACS Working Memory Cognition Domain, Change from Baseline to Week 12, Mean (SD): 1.8 (7.40)
  BACS Working Memory Cognition Domain, Change from Baseline to Week 12, Median: 0.0
  BACS Working Memory Cognition Domain, Week 6, Mean (SD): 41.0 (11.17)
  BACS Working Memory Cognition Domain, Week 6, Median: 41.0
  BACS Working Memory Cognition Domain, Week 12, Mean (SD): 41.7 (13.58)
  BACS Working Memory Cognition Domain, Week 12, Median: 40.0
125 mg
  BACS Attention Cognition Domain, Change from Baseline to Week 6, Mean (SD): 2.2 (6.07)
  BACS Attention Cognition Domain, Change from Baseline to Week 6, Median: 2.0
  BACS Attention Cognition Domain, Week 6, Mean (SD): 36.7 (12.72)
  BACS Attention Cognition Domain, Week 6, Median: 37.0
  BACS Executive Functions Cognition Domain, Change from Baseline to Week 6, Mean (SD): 0.8 (9.01)
  BACS Executive Functions Cognition Domain, Change from Baseline to Week 6, Median: 0.0
  BACS Executive Functions Cognition Domain, Week 6, Mean (SD): 46.3 (16.06)
  BACS Executive Functions Cognition Domain, Week 6, Median: 50.0
  BACS Verbal Fluency Cognition Domain, Change from Baseline to Week 6, Mean (SD): 0.8 (4.53)
  BACS Verbal Fluency Cognition Domain, Change from Baseline to Week 6, Median: 1.0
  BACS Verbal Fluency Cognition Domain, Week 6, Mean (SD): 39.1 (8.98)
  BACS Verbal Fluency Cognition Domain, Week 6, Median: 40.0
  BACS Attention Cognition Domain, Change from Baseline to Week 12, Mean (SD): 1.2 (6.41)
  BACS Attention Cognition Domain, Change from Baseline to Week 12, Median: 2.0
  BACS Attention Cognition Domain, Week 12, Mean (SD): 36.2 (12.21)
  BACS Attention Cognition Domain, Week 12, Median: 36.0
  BACS Executive Functions Cognition Domain, Change from Baseline to Week 12, Mean (SD): 2.0 (8.79)
  BACS Executive Functions Cognition Domain, Change from Baseline to Week 12, Median: 3.0
  BACS Executive Functions Cognition Domain, Week 12, Mean (SD): 47.6 (13.17)
  BACS Executive Functions Cognition Domain, Week 12, Median: 51.0
  BACS Verbal Fluency Cognition Domain, Change from Baseline to Week 12, Mean (SD): 2.1 (5.59)
  BACS Verbal Fluency Cognition Domain, Change from Baseline to Week 12, Median: 2.0
  BACS Verbal Fluency Cognition Domain, Week 12, Mean (SD): 40.6 (9.54)
  BACS Verbal Fluency Cognition Domain, Week 12, Median: 39.0
125 mg, MMRM
  BACS Attention Cognition Domain, Adjusted Change from Baseline to Week 6, LS Mean (SE): 2.2 (0.88)
  BACS Attention Cognition Domain, Difference from Placebo for Week 6, LS Mean (SE): 1.2 (1.12)
  BACS Executive Functions Cognition Domain, Adjusted Change from Baseline to Week 6, LS Mean (SE): 0.8 (1.19)
  BACS Executive Functions Cognition Domain, Difference from Placebo for Week 6, LS Mean (SE): 2.0 (1.53)
  BACS Verbal Fluency Cognition Domain, Adjusted Change from Baseline to Week 6, LS Mean (SE): 0.7 (0.68)
  BACS Verbal Fluency Cognition Domain, Difference from Placebo for Week 6, LS Mean (SE): 0.6 (0.87)
  BACS Attention Cognition Domain, Adjusted Change from Baseline to Week 12, LS Mean (SE): 1.4 (1.01)
  BACS Attention Cognition Domain, Difference from Placebo for Week 12, LS Mean (SE): −0.5 (1.29)
  BACS Executive Functions Cognition Domain, Adjusted Change from Baseline to Week 12, LS Mean (SE): 2.0 (1.09)
  BACS Executive Functions Cognition Domain, Difference from Placebo for Week 12, LS Mean (SE): 1.4 (1.38)
  BACS Verbal Fluency Cognition Domain, Adjusted Change from Baseline to Week 12, LS Mean (SE): 1.9 (0.84)
  BACS Verbal Fluency Cognition Domain, Difference from Placebo for Week 12, LS Mean (SE): 0.9 (1.07)
500 mg once daily, MMRM, one-sided unadjusted p 0.070, preliminary analysis
  BACS Verbal Memory Cognition Domain, Difference from Placebo for Week 6, LS Mean (SE): 2.0 (1.33)
500 mg once daily, MMRM, one-sided unadjusted p 0.194, preliminary analysis
  BACS Composite Score, Difference from Placebo for Week 6, LS Mean (SE): 0.9 (1.04)
500 mg once daily, MMRM, one-sided unadjusted p 0.260, preliminary analysis
  BACS Composite Score, Difference from Placebo for Week 12, LS Mean (SE): 0.8 (1.20)
500 mg once daily, MMRM, one-sided unadjusted p 0.329, preliminary analysis
  BACS Verbal Memory Cognition Domain, Difference from Placebo for Week 12, LS Mean (SE): 0.7 (1.49)
500 mg once daily, MMRM, one-sided unadjusted p 0.405, preliminary analysis
  BACS Motor Speed Cognition Domain, Difference from Placebo for Week 12, LS Mean (SE): 0.3 (1.22)
500 mg once daily, MMRM, one-sided unadjusted p 0.637, preliminary analysis
  BACS Working Memory Cognition Domain, Difference from Placebo for Week 12, LS Mean (SE): −0.5 (1.40)
500 mg once daily, MMRM, one-sided unadjusted p 0.788, preliminary analysis
  BACS Working Memory Cognition Domain, Difference from Placebo for Week 6, LS Mean (SE): −0.9 (1.19)
500 mg once daily, MMRM, one-sided unadjusted p 0.812, preliminary analysis
  BACS Motor Speed Cognition Domain, Difference from Placebo for Week 6, LS Mean (SE): −1.1 (1.30)
[2]
  BACS Composite Score, Adjusted Change from Baseline to Week 6, LS Mean (SE): 0.5 (0.87)
  BACS Composite Score, Adjusted Change from Baseline to Week 12, LS Mean (SE): 1.5 (0.99)
  BACS Motor Speed Cognition Domain, Adjusted Change from Baseline to Week 6, LS Mean (SE): −1.3 (1.07)
  BACS Motor Speed Cognition Domain, Adjusted Change from Baseline to Week 12, LS Mean (SE): −0.2 (1.02)
  BACS Verbal Memory Cognition Domain, Adjusted Change from Baseline to Week 6, LS Mean (SE): 0.7 (1.11)
  BACS Verbal Memory Cognition Domain, Adjusted Change from Baseline to Week 12, LS Mean (SE): 0.0 (1.23)
  BACS Working Memory Cognition Domain, Adjusted Change from Baseline to Week 6, LS Mean (SE): −0.9 (0.98)
  BACS Working Memory Cognition Domain, Adjusted Change from Baseline to Week 12, LS Mean (SE): 0.2 (1.15)
[3]
  BACS Composite Score, Change from Baseline to Week 6, Mean (SD): 1.5 (7.57)
  BACS Composite Score, Change from Baseline to Week 6, Median: 1.0
  BACS Composite Score, Change from Baseline to Week 12, Mean (SD): 3.0 (7.98)
  BACS Composite Score, Change from Baseline to Week 12, Median: 3.0
  BACS Composite Score, Week 6, Mean (SD): 35.6 (13.84)
  BACS Composite Score, Week 6, Median: 38.0
  BACS Composite Score, Week 12, Mean (SD): 37.6 (13.86)
  BACS Composite Score, Week 12, Median: 40.0
  BACS Motor Speed Cognition Domain, Change from Baseline to Week 6, Mean (SD): 0.5 (9.53)
  BACS Motor Speed Cognition Domain, Change from Baseline to Week 6, Median: 2.0
  BACS Motor Speed Cognition Domain, Change from Baseline to Week 12, Mean (SD): 2.0 (6.58)
  BACS Motor Speed Cognition Domain, Change from Baseline to Week 12, Median: 2.0
  BACS Motor Speed Cognition Domain, Week 6, Mean (SD): 40.7 (12.38)
  BACS Motor Speed Cognition Domain, Week 6, Median: 41.0
  BACS Motor Speed Cognition Domain, Week 12, Mean (SD): 41.3 (11.31)
  BACS Motor Speed Cognition Domain, Week 12, Median: 40.0
  BACS Verbal Memory Cognition Domain, Change from Baseline to Week 6, Mean (SD): 1.8 (8.65)
  BACS Verbal Memory Cognition Domain, Change from Baseline to Week 6, Median: 2.0
  BACS Verbal Memory Cognition Domain, Change from Baseline to Week 12, Mean (SD): 1.6 (10.04)
  BACS Verbal Memory Cognition Domain, Change from Baseline to Week 12, Median: 0.0
  BACS Verbal Memory Cognition Domain, Week 6, Mean (SD): 42.1 (12.06)
  BACS Verbal Memory Cognition Domain, Week 6, Median: 42.0
  BACS Verbal Memory Cognition Domain, Week 12, Mean (SD): 41.8 (13.82)
  BACS Verbal Memory Cognition Domain, Week 12, Median: 41.0
  BACS Working Memory Cognition Domain, Change from Baseline to Week 6, Mean (SD): 0.5 (7.99)
  BACS Working Memory Cognition Domain, Change from Baseline to Week 6, Median: 0.0
  BACS Working Memory Cognition Domain, Change from Baseline to Week 12, Mean (SD): 1.7 (7.39)
  BACS Working Memory Cognition Domain, Change from Baseline to Week 12, Median: 0.0
  BACS Working Memory Cognition Domain, Week 6, Mean (SD): 40.1 (13.75)
  BACS Working Memory Cognition Domain, Week 6, Median: 43.0
  BACS Working Memory Cognition Domain, Week 12, Mean (SD): 42.6 (13.20)
  BACS Working Memory Cognition Domain, Week 12, Median: 45.0
500 mg
  BACS Attention Cognition Domain, Change from Baseline to Week 6, Mean (SD): 0.9 (6.26)
  BACS Attention Cognition Domain, Change from Baseline to Week 6, Median: 0.0
  BACS Attention Cognition Domain, Week 6, Mean (SD): 35.5 (12.68)
  BACS Attention Cognition Domain, Week 6, Median: 35.0
  BACS Executive Functions Cognition Domain, Change from Baseline to Week 6, Mean (SD): 1.3 (7.62)
  BACS Executive Functions Cognition Domain, Change from Baseline to Week 6, Median: 0.0
  BACS Executive Functions Cognition Domain, Week 6, Mean (SD): 47.0 (10.95)
  BACS Executive Functions Cognition Domain, Week 6, Median: 51.0
  BACS Verbal Fluency Cognition Domain, Change from Baseline to Week 6, Mean (SD): 0.8 (5.87)
  BACS Verbal Fluency Cognition Domain, Change from Baseline to Week 6, Median: 1.0
  BACS Verbal Fluency Cognition Domain, Week 6, Mean (SD): 39.6 (10.14)
  BACS Verbal Fluency Cognition Domain, Week 6, Median: 40.0
  BACS Attention Cognition Domain, Change from Baseline to Week 12, Mean (SD): 3.1 (9.31)
  BACS Attention Cognition Domain, Change from Baseline to Week 12, Median: 2.0
  BACS Attention Cognition Domain, Week 12, Mean (SD): 38.0 (14.08)
  BACS Attention Cognition Domain, Week 12, Median: 36.0
  BACS Executive Functions Cognition Domain, Change from Baseline to Week 12, Mean (SD): 2.0 (9.28)
  BACS Executive Functions Cognition Domain, Change from Baseline to Week 12, Median: 0.0
  BACS Executive Functions Cognition Domain, Week 12, Mean (SD): 48.5 (11.88)
  BACS Executive Functions Cognition Domain, Week 12, Median: 51.0
  BACS Verbal Fluency Cognition Domain, Change from Baseline to Week 12, Mean (SD): 1.3 (6.95)
  BACS Verbal Fluency Cognition Domain, Change from Baseline to Week 12, Median: 0.0
  BACS Verbal Fluency Cognition Domain, Week 12, Mean (SD): 40.6 (10.30)
  BACS Verbal Fluency Cognition Domain, Week 12, Median: 40.0
500 mg, MMRM
  BACS Attention Cognition Domain, Adjusted Change from Baseline to Week 6, LS Mean (SE): 1.0 (0.96)
  BACS Attention Cognition Domain, Difference from Placebo for Week 6, LS Mean (SE): 0.0 (1.15)
  BACS Executive Functions Cognition Domain, Adjusted Change from Baseline to Week 6, LS Mean (SE): 1.1 (1.29)
  BACS Executive Functions Cognition Domain, Difference from Placebo for Week 6, LS Mean (SE): 2.3 (1.57)
  BACS Verbal Fluency Cognition Domain, Adjusted Change from Baseline to Week 6, LS Mean (SE): 0.5 (0.74)
  BACS Verbal Fluency Cognition Domain, Difference from Placebo for Week 6, LS Mean (SE): 0.3 (0.89)
  BACS Attention Cognition Domain, Adjusted Change from Baseline to Week 12, LS Mean (SE): 3.1 (1.09)
  BACS Attention Cognition Domain, Difference from Placebo for Week 12, LS Mean (SE): 1.2 (1.33)
  BACS Executive Functions Cognition Domain, Adjusted Change from Baseline to Week 12, LS Mean (SE): 2.0 (1.19)
  BACS Executive Functions Cognition Domain, Difference from Placebo for Week 12, LS Mean (SE): 1.4 (1.42)
  BACS Verbal Fluency Cognition Domain, Adjusted Change from Baseline to Week 12, LS Mean (SE): 0.5 (0.91)
  BACS Verbal Fluency Cognition Domain, Difference from Placebo for Week 12, LS Mean (SE): −0.5 (1.11)
